Literature values in US20250032516A1, “COMPOSITIONS AND METHODS FOR TREATING EPILEPSY” (POVIVA CORP, priority 2023, published 2025).
Read-outs that look alike come from different tables or passages of the source.

Conditions: children with Dravet syndrome

In the case of `C=C(C)[C@@H]1CCC(C)=C[C@H]1c1c(O)cc(CCCCC)cc1O` [Cannabidiol, 2-[(1R,6R)-6-Isopropenyl-3-methylcyclohex-2-en-1-yl]-5-pentylbenzene-1,3-diol], the “Plasma concentration on Day 1 at starting CBD dose, 5 hours, Mean (SD)” value (shortened to “Plasma concentration … 5 hours, Mean (SD)”) (5 mg/kg/day group (N = 10)) is listed as 10.0 (5.74) ng/mL, the “Plasma concentration on Day 1 at starting CBD dose, […], Mean (SD)” value (“Plasma concentration … […], Mean (SD)” for short) (5 mg/kg/day group (N = 10)) is listed as 37.6 (53.7) ng/mL and the “Plasma concentration … 5 hours, Mean (SD)” value (10 mg/kg/day group (N = 8)) is listed as 11.3 (11.7) ng/mL. For the same compound, the “Plasma concentration … […], Mean (SD)” value (10 mg/kg/day group (N = 8)) was 34.4 (32.1) ng/mL, the “Plasma concentration … 5 hours, Mean (SD)” value (20 mg/kg/day group (N = 9)) was 25.3 (42.4) ng/mL and the “Plasma concentration … […], Mean (SD)” value (20 mg/kg/day group (N = 9)) was 29.3 (28.5) ng/mL.
